In patent publication US8030444B2, “Microbicidal compositions comprising human CD38 polypeptides derived from the extracellular membrane-proximal region” (priority 2002, dated 2011):
Where two headings read alike, the source gives them in different places. Ends that are not written are not given here.

How the values were obtained:
HIV-1IIIB [1] = assay: HIV-1IIIB infection of wild-type MT-2 cells in presence of soluble CD38; type: cell-based
Procedure: In acute infection assays, the appropriate cell types were incubated at 37° C. for 2 h with the viral stock suspensions at a multiplicity of infection (MOI) of approximately 0.1, unless otherwise specified. After three washes, cells were incubated in fresh culture medium for 7 days at 37° C., and cell-free supernatants at different intervals post-infection were harvested for ELISA measurement of HIV-1 p24 (NEN Life Science Prod., Boston Mass.) or HIV-2 p27 (Coulter, Hialeah, Fla.). Where necessary, soluble CD38-derived molecules were added during the step of virus adsorption onto cells.
First, attention was focused on the intracellular (IC) domain of CD38. HIV-1IIIB was used to infect both a MT-2 cell line transfected with a truncated form of CD38 lacking the IC domain (CD3824-300) and wild-type MT-2 cells in the presence of a recombinant soluble form of CD38 consisting solely of the extracellular (EC) domain (sCD3845-300).

[2] = Water solubility of peptides
HIV-1IIIB [3] = test system: HIV-1IIIB
[4] = test system: primary HIV-1 isolates (R5); assay: Infection of PBMC by primary HIV-1 isolates, p24 ELISA; type: cell-based
[5] = target: T1, recombinant soluble human (rsh) CD4 (Homo sapiens, UniProt P01730); assay: Binding of biotin-conjugated peptide to plate-adsorbed rshCD4 (ELISA); details: 0.1-10 μM peptide
T1 construct: recombinant soluble human (rsh) CD4 (2 μg/ml) (R&D Systems); purchased R&D Systems
Procedure: Synthetic peptides from CD38 (SEQ ID NO:23) were conjugated with biotin (Pierce) as described in Wilchek, M., and Bayer, E. A., “Avidin-biotin technology,” Methods Enzymol., 184:1-746 (1990). Briefly, recombinant soluble human (rsh) CD4 (2 μg/ml) (R&D Systems) was adsorbed onto wells of 96-well-ELISA plates. Wells were then saturated with phosphate buffer saline (PBS)+2% bovine serum albumin (BSA), washed with PBS+1% BSA+0.05% Triton X-100, and the plates were incubated for 2 h at 37° C. with 100 μL of different concentrations (0.1-10 μM) of biotin-conjugated peptide. After six washes, 100 microl of streptavidin-conjugated horseradish peroxidase (HRP) from a commercially available HIV-1 p24 ELISA kit (NEN) diluted 1:100 in PBS+1% BSA was added to the wells for 30 min. at room temperature. After six more washes, the wells were incubated in the dark for 30 min. at room temperature with 100 μL of o-phenylenediamine (OPD tablets-Sigma), a chromogenic substrate for HRP diluted in phosphate-citrate buffer pH 5.0 as indicated in the Manufacturer's instructions. Then, the reaction was stopped by adding to each well 100 μL of 4 N sulfuric acid. Plates were read at 450 nm using an automated ELISA reader. […] Negative controls were run by incubating the wells with each of the titrated peptide in the absence of rshCD4 and performing the same steps described above. […]

MT-4 cells = assay: Toxicity assays (trypan blue, MTT, propidium iodide/annexin V) on MT-4 cells; type: cell-based
Procedure: (§1) Cell proliferation was assessed by sequential counts of the number of live cells per ml of cell cultures by the trypan-blue exclusion method. Cell viability and apoptosis were analyzed by the methyl tetrazolium (MTT) method (Sigma-Aldrich) according to a procedure previously described in Savarino, A., Calosso, L., Piragino, A., Martini, C., Gennero, L., Pescarmona, G. P., and Pugliese, A. (1999). Modulation of surface transferrin receptors in lymphoid cells de novo infected with human immunodeficiency virus type-1. Cell. Biochem. Funct 17, 47-55, the contents of which are hereby incorporated in their entirety, and by propidium iodide/annexin V FITC staining (MedSystems Diagnostics GmbH, Vienna, Austria) following the manufacturer's instructions.
(§2) Cells (from established cell lines or primary cultures) were resuspended at 2.5×10^5/ml in the presence of 0, 0.1, 1, 10 and 100 nM CD3851-74 MBP. Then, 200 μL portions were transferred to microtiter trays and maintained at 37° C. […] Cell viability was monitored daily by trypan blue-dye exclusion. Cell proliferation was assessed by sequential counts of the number of live cells per ml of cell cultures by the trypan-blue exclusion method. Cell viability and apoptosis were analyzed by the methyl tetrazolium (MTT) method, and by propidium iodide/annexin V fluorescein isothiocyanate (FITC) staining following the manufacturer's instructions. […]

[6] = test system: HIV-1IIIB-infected MT-4 cells; assay: HIV-1 cytopathogenicity in MT-4 cells, re-clustering after cluster disruption; type: cell-based; details: five days post-infection with HIV-1IIIB, 100 μM (FIG. 6)
Procedure: MT-4 cells display a typical clustered pattern. When infected with HIV-1IIIB, MT-4 cells lose the capacity of forming clusters. At five days post-infection, clusters were dissociated by pipetting, and reclustering was examined microscopically after a 3-h incubation at 37° C., as described by Pauwels et al. Pauwels, R., et al., “Sensitive and rapid assay on MT-4 cells for detection of antiviral compounds against the AIDS virus,” J Virol Methods, 16: 171-185 (1987). In MT-4 cells, in fact, HIV-1IIIB acts as a slow/low syncytium-inducing strain whose cytopathic effect consists in loss of cell ability to cluster and is strictly correlated to the level of viral replication.

[7] = target: FITC-conjugated HIV-1IIIB gp120; assay: gp120 attachment assay, FITC-gp120 staining of cells by flow cytometry; type: binding; details: MT-2 cells, 50 nM peptide, 5 μg/ml gp120
Procedure: In gp120 attachment assays, cells were incubated for 30 min. at 4° C. with 2 μg/ml of FlTC-conjugated HIV-1IIIB gp120 (gp120IIIB, Intracell Corp, London, UK) in PBS plus 2% albumin plus 0.01% NaN3 (PBS A/A) in the presence or absence of CD38 or CD38-derived molecules. Cells were then washed three times in PBS A/A, and fluorescence was acquired by flow cytometry. Fluorescence data were expressed as MeFI and normalized for CD4 expression where necessary.
In gp120 attachment assays, cells were incubated with saturating concentrations of FITC-conjugated gp120 from the HIV-1IIIB strain (gp120IIIB) (Intracell Corp, London, UK) in the presence or absence of CD3851-74, (SEQ ID NO:15, 21), and acquired fluorescence flow-cytometrically. The MeFI was used as an estimate of gp120 binding to cells.
HIV-1 gp120 binding experiments confirmed that CD3851-74 MBP inhibits at the level of gp120 attachment to target cells. In these experiments, MT-2 cells were incubated for 30 min. at 4° C. with saturating concentrations (5 μg/ml) of fluorescein isothiocyanate-labeled (FITC) HIV-1IIIB gp 120 (gp 120IIIB) in PBS plus 2% albumin plus 0.01% NaN3 (PBS A/A) in the presence or absence of 50 nM CD3851-74 MBP. Cells were then washed three times in PBS A/A, and fluorescence was acquired by flow cytometry.

HeLa cells = assay: Toxicity assays (trypan blue, MTT, propidium iodide/annexin V) on HeLa cells; type: cell-based; details: 0.1-100 nM
Procedure: as §1, §2

[8] = test system: primary peripheral blood mononuclear cells (PBMC); assay: Toxicity assays (trypan blue, MTT, propidium iodide/annexin V) on PBMC; type: cell-based
Procedure: as §1, §2

PHA-stimulated PBMC = assay: Cytokine production by PBMC in response to PHA; type: cell-based
Procedure: To evaluate whether CD3851-74 MBP might costimulate activation of PBMC, tests were conducted to evaluate cytokine production in response to PHA. For this purpose, PBMC were ficoll-separated and incubated with 0, 0.1, 1, 10 nM CD3851-74 MBP, in the presence of 0.1 or 1 μg/ml PHA. Then, supernatants were collected at 4, 12, 24, and 36 h of incubation, and the levels of TNF-alpha, IFN-gamma, IL-02, IL-4, IL-5, IL-6 and IL-10 were tested by ELISA (R and D Systems, Minneapolis, Minn.) or by cytofluorimetric multi-cytokine bead arrays (Becton-Dickinson). […] Some of these effects are depicted in the FIGS. 14, 15, 16 and 17. […] However, if significant, it would not be of safety concern. By contrast, it would support the anti-HIV effect of CD3851-74 MBP, since both TNF-alpha and IL-6 promote HIV-1 replication. […] De S K, Devadas K, Notkins A L. Elevated levels of tumor necrosis factor alpha (TNF-alpha) in human immunodeficiency virus type 1-transgenic mice: prevention of death by antibody to TNF-alpha. J Virol 2002; 76: 11710-4.

Q: Which “HIV infection of MT-2 cells” value (HIV-1IIIB [1]) does the source give for “sCD3845-300: recombinant soluble form of CD38 consisting solely of the extracellular (EC) domain” here?
A: inhibited HIV infection

Q: With “RQTWSGPGTTKRFPETVLARCVKYTEIH [SEQ ID NO: 13]” as the substance, how does the water solubility [2] read?
A: water-insolubility

Q: Which water solubility [2] does the source give for RWRQTWSGPGTTK [SEQ ID NO: 14] here?
A: water-insolubility

Q: With “RQQWSGPGTTKRFPETVLARCVKYTEIH [SEQ ID NO: 17]” as the substance, how does the water solubility [2] read?
A: water-insolubility

Q: Which water solubility [2] does the source give for “RWRQQWSGPGTTKRFPETVLARCVKYTEIH [SEQ ID NO: 16]” here?
A: water-insolubility

Q: Which EC50 (HIV-1IIIB [3]; 1IIIB, 2 h) does the source give for SGPGTTKRFPETVLARCVKYTEIH [CD3851-74] here?
A: 2200 nM

Q: What about the EC90 (HIV-1IIIB [3]; 1IIIB, 2 h) of the same substance?
A: 182000 nM

Q: What about the “toxic effects at the concentrations used” value (cell cultures) of the same substance?
A: did not carry out toxic effects

Q: For “RWRQTWSGPGTTKRFPETVLARCVKYTEIH [SEQ ID NO: 12]”, which water solubility [2] is on record?
A: water-insolubility

Q: Which “anti-HIV activity against higher viral challenge” value ([4]; HIV-1UG3, PBMC, MOI 0.5, 1 nM) does the source give for “(GPGTTK)8 polylysin (also: eight copies on polylysine core (MBP); listed as Homo sapiens) [GPGTTK MBP]” here?
A: maintains the anti-HIV activity

Q: And the “association of biotin-conjugated peptide to rshCD4 (O.D.)” value [5]?
A: associated to rshCD4 in a manner dependent on the concentration

Q: And the “toxic effects on MT-4 cells” value (MT-4 cells; concentrations showing anti-HIV effects)?
A: no toxic effects

Q: And the “ability of infected MT-4 cultures to form clusters” value [6]?
A: maintained a partial ability to form clusters

Q: And the “inhibition of HIV-1IIIB replication (in words)” value (HIV-1IIIB [3]; MT-4 cells, p24 ELISA)?
A: dose-dependently inhibited infection

Q: With “(SGPGTTKRFPETVLACVKYTEIH)8 polylysin [CD3851-74 MBP]” as the substance, how does the “gp120-FITC binding to cells” value [7] read?
A: down-modulated

Q: And the “growth kinetics of primary R5 isolates subtype C (VI 829) and subtype A (UG3)” value ([4]; PBMC, 1 nM)?
A: delayed the growth kinetics

Q: And the estimated selectivity index ([4]; antiviral effects at 0.1 nM, no toxicity up to 100 nM)?
A: 1000

Q: And the “concentration range inhibiting infection of PBMC by primary HIV-1 isolates” value ([4]; pilot experiments, PBMC, isolate VI 829)?
A: 0.1 to 10 nM

Q: What about the “concentration at which antiviral effects were detected” value ([4]; see Example IV) of the same substance?
A: 0.1 nM

Q: And the “cell proliferation, viability and death” value (MT-4 cells; MT-4 cells, 0.1-100 nM)?
A: does not alter cell proliferation and viability nor does it induce death

Q: What about the “cell proliferation, viability and death” value (HeLa cells) of the same substance?
A: does not alter cell proliferation and viability nor does it induce death

Q: And the “toxicity in uninfected PBMC cultures” value ([8]; 0.1 nM-100 nM, growth kinetics, trypan blue, MTT, annexin V/propidium iodide)?
A: did not display any significant toxicity

Q: What about the “cell proliferation, viability and death” value ([8]; PBMC, PHA-stimulated or unstimulated, three donors, 0.1-100 nM) of the same substance?
A: does not alter cell proliferation and viability nor does it induce death

Q: And the “IL-2, IL-4, IL-5 and IL-10 levels versus untreated cells” value (PHA-stimulated PBMC; PBMC, 0.1 or 1 μg/ml PHA, 0.1, 1, 10 nM peptide)?
A: essentially identical

Q: What about the “TNF-alpha and IL-6 levels” value (PHA-stimulated PBMC; PHA-stimulated PBMC, decrease did not reach statistical significance) of the same substance?
A: transient and donor-dependent inhibition

Q: What about the “range of inhibitory concentrations lower than that of CD3851-74” value (HIV-1IIIB [3]; HIV-1 replication, compared with Example I) of the same substance?
A: approximately 1000 fold

Q: What about the “concentration range of dose-dependent inhibition of HIV-1IIIB infection” value (HIV-1IIIB [3]; MT-4 cells, p24 ELISA Day 3) of the same substance?
A: 1 to 10 nM

Q: What about the EC50 (HIV-1IIIB [3]; read-out: EC50, inhibition of HIV-1IIIB infection, MT-4 cells, p24 ELISA Day 3, peptide added only during virus adsorption) of the same substance?
A: 12 nM

Q: And the EC90 (HIV-1IIIB [3]; read-out: EC90, inhibition of HIV-1IIIB infection, MT-4 cells, p24 ELISA Day 3, peptide added only during virus adsorption)?
A: 75 nM
